Laboratory results reported in ChEMBL document CHEMBL5528086, “Unraveling the Promise of RET Inhibitors in Precision Cancer Therapy by Targeting RET Mutations” (J Med Chem, 2024).
Each block holds one compound with its values, some of them ahead of it.

How the values were obtained:
[1] = target: Proto-oncogene tyrosine-protein kinase receptor Ret (Homo sapiens, UniProt P07949, V804L); test: Inhibition of RET V804L mutant (unknown origin)
[2] = target: ALK tyrosine kinase receptor (Homo sapiens, UniProt Q9UM73); test: Inhibition of wild type ALK (unknown origin) by enzymatic assay
[3] = target: T1, Proto-oncogene tyrosine-protein kinase receptor Ret (Homo sapiens, UniProt P07949); test: Inhibition of wild type His-tagged human RET by ADP-Glo assay
[4] = target: T1, Proto-oncogene tyrosine-protein kinase receptor Ret; test: Inhibition of GST-tagged wild type RET (unknown origin) expressed in Sf9 cells
[5] = target: Proto-oncogene tyrosine-protein kinase receptor Ret (Homo sapiens, UniProt P07949, G810C); test: Inhibition of RET G810C mutant (unknown origin)
[6] = target: Proto-oncogene tyrosine-protein kinase receptor Ret (Homo sapiens, UniProt P07949, G810V); test: Inhibition of RET G810V mutant (unknown origin)
[7] = target: T2, Proto-oncogene tyrosine-protein kinase receptor Ret (Homo sapiens, UniProt P07949, V804M); test: Inhibition of RET V804M mutant (unknown origin) expressed in Sf9 cells by enzymatic assay
[8] = target: Proto-oncogene tyrosine-protein kinase receptor Ret (Homo sapiens, UniProt P07949, G810S); test: Inhibition of RET G810S mutant (unknown origin)
[9] = target: Proto-oncogene tyrosine-protein kinase receptor Ret (Homo sapiens, UniProt P07949, G810A); test: Inhibition of RET G810A mutant (unknown origin)
[10] = target: Proto-oncogene tyrosine-protein kinase receptor Ret (Homo sapiens, UniProt P07949, G810D); test: Inhibition of RET G810D mutant (unknown origin)
[11] = target: Proto-oncogene tyrosine-protein kinase receptor Ret (Homo sapiens, UniProt P07949, G810R); test: Inhibition of RET G810R mutant (unknown origin)
[12] = tested on: Proto-oncogene tyrosine-protein kinase receptor Ret (Homo sapiens), P07949 [V804L]; test: Inhibition of RET V804L mutant (unknown origin) at 4 nM by enzymatic assay relative to control
[13] = Antiproliferative activity against human LC2 cells assessed as reduction in cell growth measured for 48 hrs by MTT assay; type: functional, cell-based; details: LC2, 48 h
[14] = tested on: Proto-oncogene tyrosine-protein kinase receptor Ret (Homo sapiens), P07949 [S904F]; test: Inhibition of RET S904F mutant (unknown origin) at 1 nM relative to control
[15] = target: Coiled-coil domain-containing protein 6/Tyrosine-protein kinase receptor RET (Homo sapiens, UniProt P07949); test: Inhibition of CCDC6-RET (unknown origin); type: protein assay
[16] = target: T1, Proto-oncogene tyrosine-protein kinase receptor Ret; test: Inhibition of full length His-tagged human recombinant RET expressed in baculovirus infected Sf9 cells
[17] = Inhibition of CCDC6-RET (unknown origin)
[18] = tested on: Proto-oncogene tyrosine-protein kinase receptor Ret (Homo sapiens), P07949 [V804L]; test: Inhibition of RET V804L mutant (unknown origin) at 4 nM relative to control
[19] = target: Vascular endothelial growth factor receptor 2 (Homo sapiens, UniProt P35968); test: Inhibition of wild type VEGFR2 (unknown origin) expressed in baculovirus infected insect cells using biotinylated-GGGGQDGKDYIVLPI peptide as substrate incubated for 1 to 4 hrs by TRF assay; parameters: species or system Insect cell
[20] = target: T1, Proto-oncogene tyrosine-protein kinase receptor Ret; test: Inhibition of wild type human RET by KINOMEscan assay
[21] = target: T2, Proto-oncogene tyrosine-protein kinase receptor Ret; test: Inhibition of RET V804M mutant (unknown origin) by KINOMEscan assay

T1 sequence (P07949 whole entry): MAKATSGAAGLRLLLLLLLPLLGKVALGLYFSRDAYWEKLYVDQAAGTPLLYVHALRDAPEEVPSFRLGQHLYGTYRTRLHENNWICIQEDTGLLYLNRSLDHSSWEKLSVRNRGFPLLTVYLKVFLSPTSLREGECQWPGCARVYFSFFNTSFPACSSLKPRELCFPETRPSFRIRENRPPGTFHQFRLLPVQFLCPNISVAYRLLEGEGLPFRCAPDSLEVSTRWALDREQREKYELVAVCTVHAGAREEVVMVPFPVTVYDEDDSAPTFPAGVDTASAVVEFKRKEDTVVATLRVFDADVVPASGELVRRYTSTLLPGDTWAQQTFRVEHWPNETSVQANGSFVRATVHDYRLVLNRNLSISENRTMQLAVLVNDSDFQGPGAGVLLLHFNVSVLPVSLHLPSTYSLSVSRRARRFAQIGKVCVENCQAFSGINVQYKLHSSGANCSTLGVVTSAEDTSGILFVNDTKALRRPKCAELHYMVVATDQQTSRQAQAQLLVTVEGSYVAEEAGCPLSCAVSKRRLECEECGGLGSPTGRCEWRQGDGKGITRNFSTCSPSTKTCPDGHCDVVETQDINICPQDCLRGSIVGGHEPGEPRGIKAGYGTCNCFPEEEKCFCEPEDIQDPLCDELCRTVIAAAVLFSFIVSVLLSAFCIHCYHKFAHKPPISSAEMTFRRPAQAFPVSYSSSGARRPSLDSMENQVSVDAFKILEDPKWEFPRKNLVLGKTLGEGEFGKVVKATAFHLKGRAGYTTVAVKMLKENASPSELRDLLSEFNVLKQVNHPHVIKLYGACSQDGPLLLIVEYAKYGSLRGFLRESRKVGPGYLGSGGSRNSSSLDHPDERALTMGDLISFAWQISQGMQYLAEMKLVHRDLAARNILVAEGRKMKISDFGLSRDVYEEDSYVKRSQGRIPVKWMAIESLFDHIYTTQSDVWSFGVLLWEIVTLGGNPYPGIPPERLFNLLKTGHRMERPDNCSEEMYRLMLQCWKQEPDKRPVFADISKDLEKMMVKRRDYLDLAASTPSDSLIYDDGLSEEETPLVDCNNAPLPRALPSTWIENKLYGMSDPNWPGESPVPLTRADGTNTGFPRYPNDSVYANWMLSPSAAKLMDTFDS
T2 sequence (P07949 29-1114 V804M limits assumed): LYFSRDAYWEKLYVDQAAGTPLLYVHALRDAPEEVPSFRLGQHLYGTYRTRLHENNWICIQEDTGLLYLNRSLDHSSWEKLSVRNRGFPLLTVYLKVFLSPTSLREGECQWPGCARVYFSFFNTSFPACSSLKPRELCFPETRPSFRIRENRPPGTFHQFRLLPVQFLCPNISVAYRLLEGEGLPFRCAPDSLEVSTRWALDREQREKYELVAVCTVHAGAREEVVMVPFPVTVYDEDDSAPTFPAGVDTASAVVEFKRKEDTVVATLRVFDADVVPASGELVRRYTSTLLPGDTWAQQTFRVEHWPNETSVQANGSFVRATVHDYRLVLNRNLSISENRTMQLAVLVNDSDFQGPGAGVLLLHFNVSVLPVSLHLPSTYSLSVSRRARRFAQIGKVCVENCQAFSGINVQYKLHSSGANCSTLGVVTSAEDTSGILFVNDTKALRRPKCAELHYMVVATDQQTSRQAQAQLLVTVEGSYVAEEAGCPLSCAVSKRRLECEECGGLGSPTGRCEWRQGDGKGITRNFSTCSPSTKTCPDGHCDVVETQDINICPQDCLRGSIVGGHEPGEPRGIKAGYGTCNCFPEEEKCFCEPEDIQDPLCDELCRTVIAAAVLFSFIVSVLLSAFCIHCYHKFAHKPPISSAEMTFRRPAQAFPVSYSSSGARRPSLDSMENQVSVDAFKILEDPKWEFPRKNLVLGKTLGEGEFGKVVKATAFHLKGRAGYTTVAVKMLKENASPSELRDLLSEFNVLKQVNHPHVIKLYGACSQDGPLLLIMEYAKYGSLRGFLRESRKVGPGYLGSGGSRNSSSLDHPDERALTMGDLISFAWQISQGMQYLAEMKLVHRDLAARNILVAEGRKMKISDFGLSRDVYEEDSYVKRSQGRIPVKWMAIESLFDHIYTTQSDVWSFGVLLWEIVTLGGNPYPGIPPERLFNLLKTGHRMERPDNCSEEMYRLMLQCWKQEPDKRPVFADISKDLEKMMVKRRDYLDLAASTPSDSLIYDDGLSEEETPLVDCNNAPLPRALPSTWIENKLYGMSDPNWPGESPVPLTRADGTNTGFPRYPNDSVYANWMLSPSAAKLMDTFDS
Chain of Proto-oncogene tyrosine-protein kinase receptor Ret (Homo sapiens), P07949 [V804L] (P07949 whole entry V804L): as the sequence (P07949 whole entry) above, with V804L counted along it
Chain of ALK tyrosine kinase receptor (Q9UM73 whole entry): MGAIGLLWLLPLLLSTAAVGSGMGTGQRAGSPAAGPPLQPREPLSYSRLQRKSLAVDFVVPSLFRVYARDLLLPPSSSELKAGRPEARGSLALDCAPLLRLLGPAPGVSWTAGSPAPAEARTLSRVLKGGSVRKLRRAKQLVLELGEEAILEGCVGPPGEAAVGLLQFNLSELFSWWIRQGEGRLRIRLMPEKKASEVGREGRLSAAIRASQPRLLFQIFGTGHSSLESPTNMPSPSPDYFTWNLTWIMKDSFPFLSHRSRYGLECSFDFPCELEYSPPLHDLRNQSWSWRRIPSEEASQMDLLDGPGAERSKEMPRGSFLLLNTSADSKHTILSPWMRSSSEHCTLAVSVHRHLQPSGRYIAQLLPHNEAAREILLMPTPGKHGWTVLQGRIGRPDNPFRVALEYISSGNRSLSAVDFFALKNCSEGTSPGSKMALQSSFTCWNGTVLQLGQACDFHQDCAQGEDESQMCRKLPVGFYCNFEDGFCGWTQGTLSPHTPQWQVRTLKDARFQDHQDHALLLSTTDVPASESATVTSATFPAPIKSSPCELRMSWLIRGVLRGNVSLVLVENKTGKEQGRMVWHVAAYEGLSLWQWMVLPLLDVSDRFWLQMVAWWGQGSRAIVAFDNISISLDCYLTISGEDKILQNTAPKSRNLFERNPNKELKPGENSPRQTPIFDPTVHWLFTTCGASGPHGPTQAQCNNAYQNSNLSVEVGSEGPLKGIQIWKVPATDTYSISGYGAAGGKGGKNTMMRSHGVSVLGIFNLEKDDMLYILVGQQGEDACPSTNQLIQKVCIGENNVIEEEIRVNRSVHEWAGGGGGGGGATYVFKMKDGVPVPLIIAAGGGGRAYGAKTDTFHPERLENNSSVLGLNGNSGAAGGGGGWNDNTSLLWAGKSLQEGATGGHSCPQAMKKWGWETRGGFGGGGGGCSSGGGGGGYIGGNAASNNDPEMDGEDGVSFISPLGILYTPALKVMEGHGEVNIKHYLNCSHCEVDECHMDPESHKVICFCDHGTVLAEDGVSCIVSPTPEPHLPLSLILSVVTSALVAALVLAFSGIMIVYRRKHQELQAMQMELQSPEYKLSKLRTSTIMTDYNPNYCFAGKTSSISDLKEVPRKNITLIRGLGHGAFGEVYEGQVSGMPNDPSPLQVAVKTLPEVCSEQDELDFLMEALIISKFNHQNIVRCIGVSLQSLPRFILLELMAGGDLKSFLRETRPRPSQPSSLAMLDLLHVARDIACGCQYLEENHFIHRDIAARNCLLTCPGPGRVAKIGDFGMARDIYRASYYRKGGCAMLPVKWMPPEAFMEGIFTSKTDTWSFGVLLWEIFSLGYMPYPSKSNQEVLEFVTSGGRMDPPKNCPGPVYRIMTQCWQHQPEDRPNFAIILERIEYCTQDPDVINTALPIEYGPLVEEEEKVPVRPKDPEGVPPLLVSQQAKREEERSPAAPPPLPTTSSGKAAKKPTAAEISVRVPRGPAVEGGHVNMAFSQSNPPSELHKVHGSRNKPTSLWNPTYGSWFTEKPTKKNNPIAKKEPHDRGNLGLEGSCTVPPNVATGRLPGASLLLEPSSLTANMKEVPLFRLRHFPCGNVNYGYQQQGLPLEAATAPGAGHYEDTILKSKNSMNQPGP

Structure (SMILES): Cc1nc2cnc(N)c(C#Cc3cncc(C(=O)Nc4ccc(CN5CCN(C)CC5)c(C(F)(F)F)c4)c3)c2nc1C
- IC50 [4]: 1.76 nM
- IC50 [5]: 11.6 nM
- IC50 [6]: 3.6 nM
- IC50 [7]: 15.1 nM
- IC50 [8]: 10.1 nM
- IC50 [9]: 1.88 nM
- IC50 [10]: 7.98 nM
- IC50 [11]: 18 nM

Structure (SMILES): CN1CCN(Cc2ccc(NC(=O)c3cncc(C#Cc4cnc(N)c5ncccc45)c3)cc2C(F)(F)F)CC1
- inhibition [12]: 98%
- IC50 [13]: 3 nM
- inhibition [14]: 60%
- IC50 [15]: 3 nM
- IC50 [16]: 3.16 nM

Structure (SMILES): Cc1ccc(C(=O)Nc2ccc(CN3CCN(C)CC3)c(C(F)(F)F)c2)cc1C#Cc1cnc(N)c2ncccc12
- inhibition [18]: 40%

Structure (SMILES): Cn1cc(-c2ccc3c(c2)ncn3-c2ccc(CC(=O)Nc3cc(C(C)(C)C)on3)cc2)cn1
- IC50 [19]: < 1 nM
- IC50 [20]: < 1 nM
- IC50 [21]: < 1 nM

The remaining lines, values ahead:

- IC50 [1]: 9 nM
- IC50 [2]: 0.1 nM
- IC50 [3]: 2 nM
Structure (SMILES): CCc1cc2c(cc1-c1ccn(CCCN(C)C)n1)C(C)(C)c1[nH]c3cc(C#N)ccc3c1C2=O

- IC50 [17]: 43.6 nM
Structure (SMILES): CC1(C)c2cc(C3CCN(CC4CCOCC4)CC3)ccc2C(=O)c2c1[nH]c1cc(C#N)ccc21
